Results on 15 substances are retold here after patent US6911470B1, “Polyoxometalate compounds as antiviral agents” (priority 1988, dated 2005).

Data set [1] can be described thus: Comparison of toxicity of polyoxometalate compounds in mice (mortality, haematology). The format is in vivo. As to conditions: BID × 6, 60 mkd i.p.; for Mortality: dead/total. The text has this:
Comparison of Toxicity of Polyoxometalate Compounds Mice.
In vivo antiviral experiments. […] Treatment was continued daily for 6 or 10 days.

For the next data set, the system named is HSV-1. In words: Plaque reduction assay for herpes simplex viruses in Vero cells. As to conditions: Table 2; read-out: EC-50 HSV-1. The format is cell-based, herpes simplex virus type 1. As for the experimental part:
(§1) Cell culture assays for heroes simplex viruses. Mycoplasma-free Vero cells, obtained from Flow Laboratory (McLean, Va.), were used for the plaque assays. The methodologies for the plaque reduction and cytotoxicity assays have been previously described (Schinazi et al, Antimicrob. Agents Chemother. 22, 499-507, 1982). Median-effect method. Dose-effect relationships were analyzed by the median-effect equation (Chou et al, Adv. Enz. Regul. 22, 27-55, 1984). The slope (m) and median effective and inhibitory concentration (EC50 and IC50) values were obtained by using a computer program developed by Chou and Chou (Chou et al, Elsevier-Biosoft, Elsevier Science Publishers, Cambridge, U.K., 1985).

A further data set concerns Vero cells. In words: Cytotoxicity assay in Vero cells. The format is cell-based. As to conditions: Table 2; >100 μM = Nontoxic; read-out: IC50 Toxicity Vero Cells. From the text: Cell culture assays for heroes simplex viruses. Mycoplasma-free Vero cells, obtained from Flow Laboratory (McLean, Va.), were used for the plaque assays. The methodologies for the plaque reduction and cytotoxicity assays have been previously described (Schinazi et al, Antimicrob. Agents Chemother. 22, 499-507, 1982).

Data set [2] addresses T1, HIV-1 reverse transcriptase (Human immunodeficiency virus type 1 group M subtype B, UniProt P04585).
T1 construct: HIV-1 RT was isolated from detergent disrupted virions; made in house; host or cells: virions pelleted from culture fluid of HIV-1-infected PHA-stimulated human PBMC; DEAE-cellulose and phosphocellulose chromatography
In words: Evaluation of compounds on purified retroviral RT (cell-free, virion-derived). Type of data set: biochemical. The following applies: Table 2; read-out: EC-50 Cell-Free RT (virion-derived). As for the experimental part: Evaluation of compounds on purified retroviral RT. HIV-1 RT was isolated from detergent disrupted virions obtained from the cell-free supernatant of infected PHA-stimulated PBMC. The enzyme was purified by passing the extract through ion-exchange chromatography columns, as described previously (Eriksson et al, Antimicrob. Agents Chemother. 31, 600-604, 1977. Briefly, 750 ml of culture fluid harvested from HIV-1-infected PBMC were ultracentrifuged to pellet the virus. The pellet was dissolved in buffer A [50 mM Tris-HCl, pH 7.9/0.25% Nonidet P-40/5 mM dithiothreitol/20% (vol/vol) glycerol] containing 1 mM EDTA, and freeze-thawed four times. After clarification by centrifugation, the enzyme was partially purified from the supernatant by passing the extract through a DEAE-cellulose column (Whatman DE-52; 2.6×15 cm) previously equilibrated with buffer B (50 mM Tris-Cl, pH 7.9, 50 mM KCl, 1 mM EDTA, 1 mM dithiothreitol, 20% glycerol). Elution was performed using a linear gradient 50-500 mM KCl in buffer B. Fractions containing enzyme activity were dialyzed against buffer B and were further purified on a phosphocellulose column (Whatman P-11) using a linear KCl (50-500 mM) gradient in buffer B. The peak fractions were pooled and dialyzed against buffer B. The enzyme was characterized as HIV-1 reverse transcriptase based on its cation, salt, pH, and template requirements according to previous descriptions (Eriksson et al, Antimicrob. Agents Chemother. 31, 600-604, 1977). The standard reaction mixture was used to evaluate the inhibitory effect of the drugs, as previously described (Eriksson et al, Antimicrob. Agents Chemother. 31, 600-604, 1977). Briefly, the reaction mixtures (final volume 100 μl) contained 100 mM Tris-HCl, pH 8.0, 50 mM KCl, 2 mM MgCl2, 5 mM DTT, 400 ug/ml bovine serum albumin, 3 μg/ml (rA)·(dT)12-18 and 1 μM of [^3H]TTP (specific activity 82.3 Ci/mmol). The reactions were started by the addition of 10 μl of partially purified RT, incubated at 37° C. for 60 min., and processed as previously described (Eriksson et al, Antimicrob. Agents Chemother. 31, 600-604, 1977).
Median-effect method. Dose-effect relationships were analyzed by the median-effect equation (Chou et al, Adv. Enz. Regul. 22, 27-55, 1984). The slope (m) and median effective and inhibitory concentration (EC50 and IC50) values were obtained by using a computer program developed by Chou and Chou (Chou et al, Elsevier-Biosoft, Elsevier Science Publishers, Cambridge, U.K., 1985).

A further data set concerns HSV-2. Kind of data set: Plaque reduction assay for herpes simplex viruses in Vero cells. The format is cell-based, herpes simplex virus type 2. As to conditions: Table 2; read-out: EC-50 HSV-2. The procedure:
as §1
For orientation: Plaque reduction counts the foci of infection that form in a cell layer.

Another data set concerns human PBM cells. Kind of data set: Cytotoxicity assay on uninfected PHA stimulated human PBMC (trypan blue). The format is cell-based. As for the experimental part:
Cells. […] PBS), and pelleted at 300×g for 10 minutes. […] Cytotoxicity assay. The drugs were evaluated for their potential toxic effects on uninfected PHA stimulated human PBMC. Flasks were seeded so that the final cell concentration was 2×10^5 cells/ml. The cells were cultured with and without drug for 6 days, at which time aliquots were counted for cell viability, as assessed by the trypan blue dye-exclusion method using a hemacytometer. The median inhibitory concentration (IC50) was calculated using the median effect method (Chou et al, Elsevier-Biosoft, Elsevier Science Publishers, Cambridge, U.K., 1985; Chou et al, Adv. Enz. Regul. 22, 27-55, 1984). Median-effect method. Dose-effect relationships were analyzed by the median-effect equation (Chou et al, Adv. Enz. Regul. 22, 27-55, 1984). The slope (m) and median effective and inhibitory concentration (EC50 and IC50) values were obtained by using a computer program developed by Chou and Chou (Chou et al, Elsevier-Biosoft, Elsevier Science Publishers, Cambridge, U.K., 1985).

Another data set concerns HIV-1 (strain LAV-1). In words: microbe, parasite or virus in culture. Type of data set: cell-based. As for the experimental part: Cells. Human peripheral blood mononuclear cells (PBMC) from healthy HIV-1 seronegative and hepatitis B virus seronegative donors were isolated by Ficoll-Hypaque discontinuous gradient centrifugation at 1,000×g for 30 minutes, washed twice in phosphate-buffered saline (pH 7.2; PBS), and pelleted at 300×g for 10 minutes. Before infection, the cells were stimulated by phytohemagglutinin (PHA) at a concentration of 6 μg/ml for three days in RPMI 1640 medium supplemented with 15% heat-inactivated fetal calf serum, 1.5 mM L-glutamine, penicillin (100 U/ml), streptomycin (100 μg/ml), and 4mM sodium bicarbonate buffer.
Viruses. HIV-1 (strain LAV-1) was obtained from Dr. P. Feorino (Centers for Disease Control, Atlanta, Ga.). The virus was propagated in human PBMC using RPMI 1640 medium, as described previously (McDougal et al, J. Immun. Meth. 76, 171-183, 1985) without PHA and supplemented with 7% v/v interleukin-2 (Advanced Biotechnologies, Silver Spring, Md.), 7 μg/ml DEAE-dextran (Pharmacia, Uppsala, Sweden), and 370 U/ml anti-human leucocyte (alpha) interferon (ICN, Lisle, Ill.). Virus obtained from cell-free culture supernatant was titrated and stored in aliquots at −80° C. until use.
Inhibition of virus replication in human PBMC. Uninfected PHA-stimulated human PBMC were uniformly distributed among 25 cm^2 flasks to give a 5 ml suspension containing about 2×10^6 cells/ml. Suitable dilutions of virus were added to infect the cultures. The mean reverse transcriptase (RT) activity of the inocula was 50,000 decompositions per min/ml corresponding to about 100 TCID50, as determined by Groopman et al. (Groopman et al, AIDS Res. Human Retro. 3, 71-85, 1987. The drugs at twice their final concentrations in 5 ml of RPMI 1640 medium, supplemented as described above, were added to the cultures. Uninfected and untreated PBMC at equivalent cell densities were grown in parallel as controls. The cultures were maintained in a humidified 5% CO2-95% air incubator at 37° C. for six days after infection, at which point all cultures were sampled for supernatant reverse transcriptase (RT) activity.
RT activity assay. Six ml supernatant from each culture was clarified from cells at 300×g for 10 minutes. Virus particles were pelleted from 5 ml samples at 40,000 rpm for 30 minutes using a Beckman 70.1 Ti rotor and suspended in 200 μl of virus disrupting buffer (50 mM Tris-Cl, pH 7.8, 800 mM NaCl, 20% glycerol, 0.5 mM phenylmethyl sulfonyl fluoride, and 0.5% Triton X-100).
The RT assay was performed in 96-well microtiter plates, as described by Spira et al. (Spira et al, J. Clin. Microbiol. 22, 97-99, 1987). The reaction mixture, which contained 50 mM Tris-Cl pH 7.8, 9 mM MgCl2, 5 mM dithiothreitol (DTT), 4.7 μg/ml (rA)n. (dT)12-18, 140 μM dATP, and 0.22 μM [^3H]TTP, specific activity 78.0 Ci/mmol, equivalent to 17,300 cpm/pmol; NEN Research Products, Boston, Mass., was added to each well. The sample (20 μl) was added to the reaction mixture which was then incubated at 37° C. for 2 hours. The reaction was terminated by the addition of 100 μl 10% trichloroacetic acid (TCA) containing 0.45 mM sodium pyrophosphate. The acid-insoluble nucleic acids which precipitated were collected on glass filters using a Skatron semi-automatic harvester. The filters were washed with 5% TCA and 70% ethanol, dried, and placed in scintillation vials. Four ml of scintillation fluid (Econofluor, NEN Research Products, Boston, Mass.) were added and the amount of radioactivity in each sample was determined using a Packard Tri-Carb liquid scintillation analyzer (model 2,000CA). The results were expressed in dpm/ml of original clarified supernatant.
Median-effect method. Dose-effect relationships were analyzed by the median-effect equation (Chou et al, Adv. Enz. Regul. 22, 27-55, 1984).

Where [3] appears, read: Table 1, read-out: EC50 Anti-HIV-1 Activity in Human PBM Cells.
Setting [4] is: Table 1, read-out: IC50 Toxicity in Human PBM Cells.

Several values for one entry are separate records, joined by “and”; a condition that tells them apart may be missing. Equal values may be shown once. Read-outs that look alike come from different tables or passages of the source.

What is called IC50 is the concentration that inhibits the measured activity by half.

For “(ArgH^+)n(H^+)5-nBT, where n=1-5 [(ARGH^+)nH^+(5−n)BT]”, in data set [1], the “MDD ± St. Dev. (Mean day of death)” value came out at 8.8 ± 0.45. Besides, the Mortality in data set [1] is recorded as 5/5 (100). In addition, the values for the EC50 (with HSV-1; in data set [2]; in the data set on HSV-2) were 1.35 µM, 25.4 µM and 3.16 µM, respectively. Moreover, the IC50 was more than 100 µM in the data set with Vero cells and 328 µM in the data set with human PBM cells (Table 2, >100 μM = Nontoxic, read-out: IC50 Toxicity PBM Cells).

Regarding (NH4)5[BW12O40] [(NH4)5BT], the EC50 with HIV-1 (strain LAV-1) (Table 2, several values per cell, some in brackets, read-out: EC-50 HIV-1 (LAV-1)) is 6.69 µM and 11.6 µM; in the data set with HSV-1, more than 10 µM; in data set [2], 68.1 µM; in the data set on HSV-2 it was more than 10 µM. Further, the “MDD ± St. Dev. (Mean day of death)” value in data set [1] was determined as 4.6 ± 0.89. The Mortality in data set [1] is 5/5 (100). In addition, the IC50 in the data set on Vero cells is more than 100 µM.

For the substance (NH4)14[NaP5W30O110] [Formula 17], the EC50 in the data set on HIV-1 (strain LAV-1) (setting [3]) stood at 0.32 µM. The 50% inhibitory concentration (IC50) in the data set on human PBM cells (setting [4]) amounted to 7.7 µM.

Turning to (n-Bu4N)2Mo6O19 [Formula 16], the EC50 in the data set on HIV-1 (strain LAV-1) (setting [3]) was more than 100 µM. In addition, the concentration for half-maximal inhibition (IC50) in the data set on human PBM cells (setting [4]) was more than 100 µM.

(n-Bu4N)2W6O19 [Formula 15]: in the data set on human PBM cells (setting [4]), the IC50 is more than 100 µM.

For the substance H6ZnW12O40 [Formula 5], the EC50 in the data set on HIV-1 (strain LAV-1) (setting [3]) was 0.9 µM. Further, in the data set with human PBM cells (setting [4]), the IC50 was found to be 12 µM.

As to K4W4O10(O2)6 [Formula 21], the EC50 in the data set on HIV-1 (strain LAV-1) (setting [3]) was more than 50 µM. The half-inhibitory concentration (IC50) in the data set on human PBM cells (setting [4]) is more than 100 µM.

Take K8SiW11O39 [Formula 9]: the EC50 with HIV-1 (strain LAV-1) (setting [3]) came to 0.15 µM. The concentration for half-maximal inhibition (IC50) in the data set with human PBM cells (setting [4]) is more than 100 µM.

For the substance K10Co4(H2O)2(PW9O34)2 [Formula 12], the EC50 with HIV-1 (strain LAV-1) (setting [3]) amounted to 0.8 µM. The 50% inhibitory concentration (IC50) with human PBM cells (setting [4]) was 44 µM.

On to K10Cu4(H2O)2(PW9O34)2 [Formula 11], for which, in the data set on HIV-1 (strain LAV-1) (setting [3]), the EC50 is 4.4 µM. Besides, the IC50 in the data set on human PBM cells (setting [4]) is more than 100 µM.

Turning to Na6H2W12O40 [Formula 6], the EC50 with HIV-1 (strain LAV-1) (setting [3]) was found to be 0.34 µM. Besides, the IC50 in the data set on human PBM cells (setting [4]) was more than 100 µM.

As to Na7PW11O39 [Formula 8], the EC50 in the data set with HIV-1 (strain LAV-1) (setting [3]) was 10.8 µM. Besides, in the data set on human PBM cells (setting [4]), the 50% inhibitory concentration (IC50) was more than 100 µM.

On to Na9HSiW9O34 [Formula 10], for which the EC50 in the data set on HIV-1 (strain LAV-1) (setting [3]) stood at 2.4 µM. Further, the half-maximal inhibitory concentration (IC50) in the data set with human PBM cells (setting [4]) is more than 100 µM.

Turning to [(DMA)2H]3PMo12O40 [Formula 7], in the data set with HIV-1 (strain LAV-1) (setting [3]), the EC50 was more than 100 µM. In the data set with human PBM cells (setting [4]), the IC50 is more than 100 µM.

Turning to α-(n-Bu4N)4Mo8O26 [Formula 20], the EC50 in the data set on HIV-1 (strain LAV-1) (setting [3]) was determined as 55.3 µM. Besides, in the data set on human PBM cells (setting [4]), the half-inhibitory concentration (IC50) was more than 100 µM.
